Laboratory results taken from patent US20160022751A1, “NOVEL COMPOSITION FOR TREATING ALZHEIMER'S DISEASE AND IMPROVING COGNITIVE FUNCTION OF ALZHEIMER'S PATIENTS” (GANGNEUNG-WONJU NATIONAL UNIVERSITY INDUSTRY ACADEMY …, priority 2014, published 2016).

Legend:
ERK = ERK phosphorylation in HMO6 cells (western blot); format: cell-based, human; details: Rg3 5 μg/ml, western blot (FIG. 18)
Method: FIG. 18 is a photograph showing a result of western blot analysis for confirming the degree of phosphorylation of ERK (extracellular-regulated kinase) and p38, according to an embodiment of the present invention. Depending on the presence of Rg3, the levels of phospho-ERK and phospho-p38 protein were investigated by immune-blotting. HMO6 cells were treated with Rg3 (5 μg/ml) after plated on 60 mm cell culture plates and western blot analysis was performed after the cells were placed in phenol red negative/sere-free DMEM medium for 1 h. The western blot analysis was carried out three times independently.
HMO6 cells were lysed in 1% RIPA buffer containing protease and phosphatase inhibitors (Roche, Mannheim, Germany) and whole-cell lysates were separated on 10% sodium dodecyl sulfate-polyacrylamide gel electrophoresis. After electrophoresis, the proteins were transferred to polyvinylidene fluoride membranes, and the membranes were blocked with 5% skim milk in Tris-buffered saline solution containing 0.1% Tween-20. The membranes were then immunoblotted with primary antibodies, anti-phospho-p38, anti-p38, anti-phospho-ERK, anti-ERK, and anti-f3-actin (Santa Cruz Biotechnology, USA), followed by incubation with horseradish peroxidase-conjugated anti-rabbit or anti-mouse secondary antibodies (Stressgen, USA). Blots were developed using an enhanced chemiluminescent solution (Thermo, USA).

HMO6 cells = assay: Uptake of FITC-labeled Aβ42 in HMO6 cells (live-cell imaging); format: cell-based, human; details: HMO6 cells pre-treated with Rg3 5 μg/ml for 20 h, after 30 min, persisted for 6 h (FIG. 21)
Method: The stably transfected HM06.hSRA cells prepared in Example 5-5 were plated into 96-well plates at 5000 cells/well to analyze Aβ uptake. […] […] Fluorescence intensities represented the number of cells (count/mm^2) over the time to quantify cells with FITC-labeled Aβ42 peptides. Aβ42 uptake was calculated using the following equation (FIG. 21):

## CC(C)=CCC[C@](C)(O)[C@H]1CC[C@]2(C)[C@@H]1[C@H](O)C[C@@H]1[C@@]3(C)CC[C@H](O[C@@H]4O[C@H](CO)[C@@H](O)[C@H](O)[C@H]4O[C@@H]4O[C@H](CO)[C@@H](O)[C@H](O)[C@H]4O)C(C)(C)[C@@H]3CC[C@]12C [ginsenoside Rg3]
ERK
  phosphorylation of ERK: promoted the phosphorylation
HMO6 cells
  Aβ42 uptake: increased Aβ42 uptake significantly
